The numbers were not newly measured in US20100215736A1, “ORAL DOSAGE FORM PROVIDING FAST ADSORPTION OF DRUG” (NOVARTIS AG, priority 2007, published 2010), which cites them from elsewhere.

For the data set the following is noted: in vivo.

Turning to `CC(C)Cc1ccc(C(C)C(=O)[O-])cc1.O.O.[Na+]` (stereo not shown) [ibuprofen sodium dihydrate salt], the tmax was 36 min.
